The record followed here is patent US5554620A, “Substituted 6,11-ethano-6,11-dihydrobenzo[b] quinolizinium salts and compositions and methods of use thereof” (Sterling Winthrop Inc., priority 1994, dated 1996).

One may read the Ki as a measure of affinity in units of concentration, obtained from inhibition or displacement. A low value points to tighter binding.

The first assay deals with PCP receptor. In words: [3H]TCP radioreceptor assay (binding to PCP recognition sites). To be noted: [3H]TCP approx. 1 nM, rat brain membranes; mean of at least two determinations. Also on record: species or system rat (male Sprague-Dawley, whole brain). The protocol:
[^3 H]TCP Radioreceptor Assay
[^3 H]TCP binding to PCP recognition sites was performed as described by Vignon et al. Brain Research 1983, 280, 194-197. Male Sprague-Dawley rats were sacrificed by decapitation, and whole brains were homogenized in 10 volumes (wt/vol) of cold Tris-HCl buffer (50 mM, pH 7.7) using a Brinkmann Polytron (setting 6, 30 sec). The homogenate was centrifuged at 40,000×g for 10 min at 4° C. The supernatant was decanted, and the homogenization and centrifugation steps were repeated twice as described above. Following this, the pellet was resuspended in Tris-HCl (5 mM, pH 7.7) at a tissue concentration of 0.5-0.75 g/mL, and one mL aliquots were frozen at -70° C. until use. The binding characteristics for PCP recognition sites were not altered by the freezing of membrane suspensions.
On the day of the assay, membrane aliquots were thawed, resuspended in fresh 5 mM Tris-HCl buffer at a tissue concentration of 1 mg/mL, and stored on ice until use. Each assay tube contained 100 μl of [^3 H]TCP at a final concentration of approximately 1 nM, 100 μL of various concentrations of the compounds of interest, 500 μL of the tissue suspension and 300 μL of buffer to a final assay volume of 1 mL and a final protein concentration of 0.5 mg/tube. Non-specific binding was defined by addition of a final concentration of 100 μM PCP to blank tubes. All tubes were incubated at room temperature for 25 min before termination of the reaction by rapid filtration over Whatman GF/B glass fiber filters that had been presoaked in a solution of 0.5% polyethylenimine for at least 1 hr prior to use. Filters were washed with three 4 mL volumes of cold Tris buffer. Following addition of scintillation cocktail, the amount of bound radioactivity was determined by liquid scintillation spectrometry using a Beckman LS 5000TA liquid scintillation counter with an efficiency for tritium of approximately 55%. Inhibition constants (Ki values) were calculated using the EBDA/LIGAND program (McPherson, J. Pharmacol. Meth. 1985, 14, 213-228), purchased from ElsevierBiosoft, Inc. Results are reported as the Ki values (in nM) which are expressed as the mean of at least two separate determinations; or as a percent (%) inhibition of binding at 10 μM.
With `COc1cccc2c1C1c3cccc[n+]3C2CC1(c1ccccc1)c1ccccc1.[O-][Cl+3]([O-])([O-])[O-]` (stereo not shown) [25(c), 6,11-ethano-12,12-diphenyl-10-methoxy-6,11-dihydrobenzo[b]quinolizinium perchlorate], affinity was put at a Ki of 39.3 nM.
The same measure, in the same setting: then `COc1ccc2c(c1)C1c3cccc[n+]3C2CC1(c1ccccc1)c1ccccc1` (stereo not shown) [27(E), 6,11-ethano-12,12-diphenyl-9-methoxy-6,111-dihydrobenzo[b]quinolizinium chloride 1/2 hydrate], with 10.4 nM; and `Oc1cccc2c1C1c3cccc[n+]3C2CC1(c1ccccc1)c1ccccc1` (stereo not shown) [28(c), 6,11-ethano-12,12-diphenyl-10-hydroxy-6,11-dihydrobenzo[b]quinolizinium chloride], with 11.7 nM; and `Fc1ccc(C2(c3ccc(F)cc3)CC3c4ccccc4C2c2cccc[n+]23)cc1` (stereo not shown) [31(c), 6,11-ethano-12,12-di(p-fluorophenyl)-6,11-dihydrobenzo[b]-quinolizinium chloride], with 2210 nM.
Compound `CC(C)Oc1cccc2c1C1c3cccc[n+]3C2CC1(c1ccccc1)c1ccccc1` (stereo not shown) [32(F), 6,11-ethano-12.12-diphenyl-10-isopropoxy-6,11-dihydrobenzo[b]quinoliziniumchloride] came in with a Ki of 468 nM.
In turn, `Fc1cc(F)c2c(c1)C1CC(c3ccccc3)(c3ccccc3)C2c2cccc[n+]21` (stereo not shown) [33(c), 6,11-ethanol-12,12-diphenyl-8,10-difluoro-6,11-dihydrobenzo[b]quinolizinium chloride 1/4 hydrate] had an inhibition constant Ki of 1140 nM.
Same read-out and setting: then `Oc1ccc2c(c1)C1c3cccc[n+]3C2CC1(c1ccccc1)c1ccccc1` (stereo not shown) [34(b), 6,11-ethano-12,12-diphenyl-9-hydroxy-6,11-dihydrobenzo[b]quinolizinium chloride], with 21.9 nM.
Take `COc1cccc(C2(c3cccc(OC)c3)CC3c4ccccc4C2c2cccc[n+]23)c1` (stereo not shown) [35(c), 6,11-ethano-12,12-di(m-methoxyphenyl)-6,11-dihydrobenzo[b]quinolizinium chloride]: the affinity, expressed as Ki, was 41 nM.
Compound `Brc1cccc(C2(c3cccc(Br)c3)CC3c4ccccc4C2c2cccc[n+]23)c1` (stereo not shown) [36(c), 6,11-ethano-12,12-di(m-bromophenyl)-6,11-dihydrobenzo[b]quinolizinium chloride] came in with a Ki of 185 nM.
The same measure, in the same setting: then `COc1cccc2c1C1c3cccc[n+]3C2(C)CC1(c1ccccc1)c1ccccc1` (stereo not shown) [37(E), 6,11-ethano-12,12-diphenyl-10-methoxy-6-methyl-6,11-dihydrobenzo[b]quinolizinium chloride], with 36.7 nM.
Regarding `CC12CC(c3ccccc3)(c3ccccc3)C(c3c(O)cccc31)c1cccc[n+]12` (stereo not shown) [38(c), 6,11-ethano-12,12-diphenyl-10-hydroxy-6-methyl-6,11-dihydrobenzo[b]quinolizinium chloride], the affinity, expressed as Ki, was 16.6 nM.
The compound `c1cncc(C2(c3cccnc3)CC3c4ccccc4C2c2cccc[n+]23)c1` (stereo not shown) [42(E), 6,11-ethano-12,12-di(3-pyridyl)-6,11-dihydrobenzo[b]quinolizinium chloride] yielded a Ki of 2270 nM.
As to `COc1ccc(C2(c3ccc(OC)cc3)CC3c4ccccc4C2c2cccc[n+]23)cc1` (stereo not shown) [44(b), 6,11-ethano-12,12-di(p-methoxyphenyl)-6,11-dihydrobenzo[b]quinolizinium hexafluorophosphate], the inhibition constant (Ki) worked out at 28100 nM.
Still for that read-out and setting: then `FC(F)(F)c1ccc2c(c1)C1c3cccc[n+]3C2CC1(c1ccccc1)c1ccccc1` (stereo not shown) [45(E), 6,11-ethano-12,12-diphenyl-9-trifluoromethyl-6,11-dihydrobenzo[b]quinolizinium chloride 1/4 hydrate], with 491 nM; and `[O-][Cl+3]([O-])([O-])[O-].c1ccc2c(c1)C1CC(c3cocn3)(c3cocn3)C2c2cccc[n+]21` (stereo not shown) [53(g), 6,11-ethano-12,12-di(4-oxazolyl)-6,11-dihydrobenzo[b]quinolizinium perchlorate], with 93 nM.
Still for that read-out and setting: then `Cc1cc[n+]2c(c1)C1c3ccccc3C2CC1(c1ccccc1)c1ccccc1.[O-][Cl+3]([O-])([O-])[O-]` (stereo not shown) [54(E), 6,11-ethano-12,12-diphenyl-2-methyl-6,11-dihydrobenzo[b]quinolizinium perchlorate], with 52 nM; and `Clc1cccc(C2(c3cccc(Cl)c3)CC3c4ccccc4C2c2cccc[n+]23)c1` (stereo not shown) [55(b), 6,11-ethano-12,12-di(m-chlorophenyl)-6,11-dihydrobenzo[b]quinolizinium chloride], with 104 nM.
Regarding `CCCCC12CC(c3ccccc3)(c3ccccc3)C(c3ccccc31)c1cccc[n+]12.[O-][Cl+3]([O-])([O-])[O-]` (stereo not shown) [59(c), 6,11-ethano-12,12-diphenyl-6-butyl-6,11-dihydrobenzo[b]quinolizinium perchlorate], the Ki came to 3910 nM.
`Brc1ccc(Br)c2c1C1CC(c3ccoc3)(c3ccoc3)C2c2cccc[n+]21.[O-][Cl+3]([O-])([O-])[O-]` (stereo not shown) [60(e), 6,11-ethano-12,12-di(3-furyl)-7,10-dibromo-6,11-dihydrobenzo[b]quinolizinium perchlorate] had a Ki of 345 nM.
For the compound `c1ccc2c(c1)C1CC(c3nccs3)(c3nccs3)C2c2cccc[n+]21` (stereo not shown) [61(c), 6,11-ethao-12,12-di(2-thiazolyl)-6,11-dihydrobenzo[b]quinolizinium perchlorate], the Ki turned out to be 17 nM.
The same measure, in the same setting: then `[O-][Cl+3]([O-])([O-])[O-].c1ccc2c(c1)C1CC(c3cncs3)(c3cncs3)C2c2cccc[n+]21` (stereo not shown) [62(c), 6,11-ethano-12,12-di(5-thiazolyl)-6,11-dihydrobenzo[b]quinolizinium perchlorate], with 120 nM; and `COc1cccc2c1C1c3cccc[n+]3C2CC1(c1ccoc1)c1ccoc1` (stereo not shown) [66(g), 6,11-ethano-12,12-di(3-furanyl)-10-methoxy-6,11-dihydrobenzo[b]quinolizinium chloride], with 6 nM.
Compound `COc1cccc(C2(c3cccc(OC)n3)CC3c4ccccc4C2c2cccc[n+]23)n1.[O-][Cl+3]([O-])([O-])[O-]` (stereo not shown) [67(e), 6,11-ethano-12,12-di-(6-methoxypyridin-2-yl)-6,11-dihydrobenzo[b]quinolizinium perchlorate] returned a Ki of 80 nM.
As to `c1ccc2c(c1)C1CC(c3cnn[nH]3)(c3cnn[nH]3)C2c2cccc[n+]21` (stereo not shown) [70(F), 6,11-ethano-12.12-di-(5-1,2,3-triazoyl)6,11-dihydrobenzo[b]quinolizinium Chloride], the affinity corresponds to a Ki of 3830 nM.
Still for that read-out and setting: with `c1ccc2c(c1)C1CC(c3cc[nH]c3)(c3cc[nH]c3)C2c2cccc[n+]21` (stereo not shown) [71(F), 6,11-ethano-12,12-di(3-pyrrolyl)-6,11-dihydrobenzo[b]quinolizinium chloride] the figure was 3.1 nM; with `[O-][Cl+3]([O-])([O-])[O-].c1ccc(C2(c3ccccc3)CC3c4ccccc4C2c2cccc[n+]23)cc1` (stereo not shown) [111(a), 6,11-Ethano-12,12-diphenyl-6,11-dihydrobenzo[b]quinolizinium perchlorate], 6.07 nM.

Staying with this assay, now noted: inhibition of [3H]TCP binding at 10 μM.
In the case of `COc1ccc(CN(c2ccc(C3(c4ccc(N(Cc5ccc(OC)cc5)S(C)(=O)=O)cc4)CC4c5ccccc5C3c3cccc[n+]34)cc2)S(C)(=O)=O)cc1` (stereo not shown) [29(c), 6,11-ethano-12,12-di[4-(N-p-methoxybenzyl-N-methylsulfonylamino)phenyl]-6,11-dihydrobenzo[b]quinolizinium perchlorate 1/2 ethyl acetate], the “[3H]TCP percent inhibition @ 10 μm” value worked out at 31%.
Still for that read-out and setting: then `Cc1ccc(C2(c3ccc(C)cc3)CC3c4ccccc4C2c2cccc[n+]23)cc1.[Cl-]` (stereo not shown) [30(c), 6,11-ethano-12,12-di-(p-methylphenyl)-6,11-dihydrobenzo[b]quinolizinium chloride], with 22%; and `Clc1ccc(C2(c3ccc(Cl)cc3)CC3c4ccccc4C2c2cccc[n+]23)cc1.F[P-](F)(F)(F)(F)F` (stereo not shown) [43(b), 6,11-ethano-12,12-di(p-chlorophenyl)-6,11-dihydrobenzo[b]quinolizinium hexafluorophosphate], with 45%; and `FC(F)(F)c1cccc(C2(c3cccc(C(F)(F)F)c3)CC3c4ccccc4C2c2cccc[n+]23)c1.[Cl-]` (stereo not shown) [46(c), 6,11-ethano-12,12-di(m-trifluoromethylphenyl)-6,11-dihydrobenzo[b]quinolizinium chloride], with 31%.
As for `[Cl-].c1ccc2c(c1)C1CC(c3ccncc3)(c3ccncc3)C2c2cccc[n+]21` (stereo not shown) [49(E), 6,11-ethano-12,12-di(4-pyridyl)-6,11-dihydrobenzo[b]quinolizinium chloride], the “[3H]TCP percent inhibition @ 10 μm” value worked out at 54%.
